Here are results for eight molecules from US11358969B2, “Indole AHR inhibitors and uses thereof” (Ikena Oncology, Inc., priority 2017, dated 2022).

Like-named read-outs stand apart in the source and are kept apart here.

One data set deals with Cyp1a1. The data set is described as follows: In Vivo Mouse liver and spleen Cyp1a1 Modulation Assay (Example 1E). Details: species or system C57BL/6 mice. As to conditions: po, 4 h, dose 30 mg/kg, with AHR agonist VAG539 30 mg/kg po, qPCR. Here is the method:
C57BL/6 mice, female, 6-8 weeks old, weighing approximately 18-20 g were purchased from Shanghai Lingchang Biological Technology Co., Ltd or other certified vendors and used in the studies. Animal husbandry, feeding and health conditions are according to animal welfare guidelines. VAG539 (30 mg/kg, po) was used as AHRagonist, and test compounds were formulated in suitable vehicles, typically 0.5% methylcellulose).
C57BL/6 mice (n=3 per group) were treated with AHR agonist alone or with AHR agonist and test compounds. Animals were sacrificed at 4 or 10 hours after treatment upon which their livers and spleens were collected and subsequently analyzed by qPCR. Normalized fold induction of cyp1a1 was determined by comparing mCYP1A1 and mGAPDH counts (ct) according to: normalized fold=2^−ΔΔCt. The percent inhibition was calculated according to: […]

The target in a further data set is T1, AHR (UniProt P35869).
T1 construct: IC50
T1 sequence (P35869 1-848): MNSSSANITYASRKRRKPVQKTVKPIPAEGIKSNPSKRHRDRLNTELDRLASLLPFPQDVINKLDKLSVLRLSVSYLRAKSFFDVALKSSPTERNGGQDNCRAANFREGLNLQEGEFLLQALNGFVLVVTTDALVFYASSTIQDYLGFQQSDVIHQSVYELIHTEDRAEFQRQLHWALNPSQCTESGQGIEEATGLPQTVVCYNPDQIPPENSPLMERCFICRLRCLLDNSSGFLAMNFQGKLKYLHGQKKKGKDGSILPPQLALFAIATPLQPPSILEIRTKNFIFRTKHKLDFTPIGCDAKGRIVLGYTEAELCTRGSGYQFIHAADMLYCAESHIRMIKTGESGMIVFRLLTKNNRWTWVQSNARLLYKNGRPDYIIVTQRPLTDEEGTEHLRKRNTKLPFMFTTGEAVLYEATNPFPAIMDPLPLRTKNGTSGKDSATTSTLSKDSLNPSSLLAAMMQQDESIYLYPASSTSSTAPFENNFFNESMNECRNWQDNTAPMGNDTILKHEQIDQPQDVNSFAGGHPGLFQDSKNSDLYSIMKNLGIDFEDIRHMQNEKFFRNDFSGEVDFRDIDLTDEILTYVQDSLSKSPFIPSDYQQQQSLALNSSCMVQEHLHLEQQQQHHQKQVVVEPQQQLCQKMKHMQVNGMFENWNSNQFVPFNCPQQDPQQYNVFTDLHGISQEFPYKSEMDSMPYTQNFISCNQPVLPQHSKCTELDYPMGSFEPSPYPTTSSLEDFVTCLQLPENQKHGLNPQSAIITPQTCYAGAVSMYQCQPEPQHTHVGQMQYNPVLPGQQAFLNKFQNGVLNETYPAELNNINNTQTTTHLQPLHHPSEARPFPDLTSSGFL
The data set is described as follows: DRE-Luciferase Reporter Assay (Alternate Method) (Example 1B). The data set is classed as cell-based, murine or human. The note with it: cell line and AHR activating ligand not specified. (In general: In a reporter assay the amount or activity of a reporter protein is the signal.)

Data set [1] in a line: Mouse Pharmacokinetic Study (Example 1C). As to conditions: plasma, CD-1 mice; for bioavailability / AUC(0-inf) / AUC(0-t) / clearance / half-life / Vd / Cmax / Tmax: mouse; for Vd: read-out: Vdss. The data set is classed as in vivo. Here is the method:
Formulations of compounds set forth in Table 4 were administered intravenously or orally via gavage to CD-1 mice. Typically, at 0.167, 0.5, 1, 2, 4, 6, 12, and 24 hours post-dose, blood was collected and processed to plasma by centrifugation and stored at −80° C. until analysis.
Internal standard was added to each sample prior to protein precipitation with acetonitrile. The precipitates were filtered through a Phree phospholipid removal filter plate and the samples were analyzed by LC/MS/MS. A standard curve was prepared in plasma from typically from 1.0 ng/mL to 3000 ng/mL and processed in the same manner as the samples. Sample analysis was typically performed on a suitable LC/MS/MS system fitted with an analytical UPLC column and compounds eluted from the analytical column with a gradient from 30-95% 0.1% formic acid (v/v) in ACN: 0.1% formic acid (v/v) in water. Mass spectrometric detection of test compound and the internal standard was performed by MRM in positive mode. The pharmacokinetics of each compound were analyzed by Phoenix WinNonlin software (Pharsight, St. Louis, Mo.) via non-compartmental analysis.

Data set [2] in a line: In Vitro Mouse liver S9 Metabolic Stability Assay (Example 1D). The data set is classed as in vitro ADME. As to conditions: CD-1 mouse liver S9, 1 μM compound, 1 mg/mL S9 protein, 37° C., NADPH regenerating system, UDPGA, PAPS. How it is done:
CD-1 mouse liver S9 were purchased from Corning or XenoTech LLC or BioreclamationIVT, LLC or WuXi prepared. The cells were stored at −80° C. in a freezer before use. β-Nicotinamide adenine dinucleotide phosphate (NADP), Glucose 6-phosphate (G6P), Glucose 6-phosphate dehydrogenase from yeast (G6PDH), Uridine 5′-diphophoglucuronic acid trisodium salt (UDPGA) and Adenosine 3′-phosphate 5′-phosphosulfate lithium salt hydrate (PAPS) were available commercially from Sigma.
Compounds were diluted in DMSO to make 10 mM stock solution. 5 μL of this stock solution (10 mM, DMSO) was diluted with 45 μL DMSO and 450 μL 50% Methanol/Water to make intermediate stock solution (100 μM, 45% MeOH, 10% DMSO). 50 μL of intermediate stock solution was diluted with 450 μL 100 mM phosphate buffer to make a final stock solution (10 μM, 4.5% MeOH, 1% DMSO). 10 uL of final stock solution was added to 90 uL liver S9 system (final concentration of 1 μM, 0.45% MeOH, 0.1% DMSO).
Test compounds were incubated at 37° C. with liver S9 (pooled from multiple donors) at 1 μM in the presence of a NADPH regenerating system, UDPGA, and PAPS at 1 mg/mL S9 protein. Time samples (0 and 60 minutes) were removed and immediately mixed with cold acetonitrile containing internal standard (IS). Samples were analyzed by LC/MS/MS and disappearance of test compounds were assessed based on peak area ratios of analyte /IS (no standard curve). All samples were injected and analyzed using LC-MS/MS. The analyte/internal standard peak area ratios were converted to percentage remaining (% Remaining) with the following equation: % Remaining at 60 min=(Peak area ratio of analyte to IS at 60 min/Peak area ratio of analyte to IS at t=0)×100%. Table 5. Mouse Stability Data According to Example 1D.

Where [3] appears, read: read-out: Cyp1a1 inhibition, Liver, 4 h.
Setting [4] is: read-out: Cyp1a1 inhibition, Spleen, 4 h.
The mark [5] stands for this setting: po, 15 mg/kg, 3.00 mg/mL in DMSO:solutol:water = 5:10:85, solution.

On to `CC(C)c1cnn2c(NCCc3c[nH]c4ccccc34)cc(-c3cccnc3)nc12` [I-46, N-[2-(1H-Indol-3-yl)ethyl]-3-isopropyl-5-(3-pyridyl)pyrazolo[1,5-a]pyrimidin-7-amine], for which the inhibition (usually the change of the read-out against control, counted positive when it falls) at 30 mg/kg is 96% in the data set with Cyp1a1 (setting [3]) and 94% with Cyp1a1 (setting [4]). The IC50 (commonly the midpoint of a concentration-inhibition curve) against AHR was less than 500 nM.

`CN(C)c1cnn2c(N[C@H]3Cc4ccc(O)cc4C3)cc(-c3cncc(F)c3)nc12` [I-204b, (2S)-2-[[3-(dimethylamino)-5-(5-fluoro-3-pyridyl)pyrazolo[1,5-a]pyrimidin-7-yl]amino]indan-5-ol]: in data set [1] (po, 30 mg/kg), the bioavailability (usually the share of a dose that reaches the circulation, judged against a reference dose that is usually intravenous) was 2%; the AUC(0-inf) (as a rule, total exposure, with the tail of the curve extrapolated) came to 67 ng·h/mL; the AUC(0-t) (as a rule, the area under the concentration-time curve up to a stated or last time point) was 63 ng·h/mL; the peak level (Cmax) was 55 ng/mL. In data set [1] (po, 30 mg/kg), the Tmax (as a rule, the time at which the peak concentration occurs) worked out at 0.2 h and the half-life (as a rule, how long it takes for the measured level to halve) was 3.2 h. In data set [1] (iv, 3 mg/kg), the area under the curve AUC(0-inf) came out at 455 ng·h/mL; the AUC(0-t) amounted to 454 ng·h/mL; the clearance (as a rule, a measure of how efficiently the substance is removed, as volume per time) worked out at 110 mL/min/kg; the half-life is 0.9 h. In data set [1] (iv, 3 mg/kg), the Vd worked out at 4 L/kg. Moreover, the IC50 against AHR is less than 500 nM. Also, the “Mouse S9 Stability: % Remaining After 60 Minutes” value in data set [2] is reported as 0%.

With `CN(C)c1cnn2c(NCCc3c[nH]c4ccccc34)cc(-c3cncc(F)c3)nc12` [I-203, 5-(5-fluoro-3-pyridyl)-N7-[2-(1H-indol-3-yl)ethyl]-N3,N3-dimethyl-pyrazolo[1,5-a]pyrimidine-3,7-diamine], in data set [1] (po, 30 mg/kg), the bioavailability amounted to 12%, the AUC(0-inf) was determined as 657 ng·h/mL, the AUC(0-t) is 656 ng·h/mL and the Cmax (commonly the peak of the concentration-time curve) was 604 ng/mL. Further, in data set [1] (po, 30 mg/kg), the Tmax was found to be 0.2 h and the half-life is 0.7 h. In addition, in data set [1] (iv, 3 mg/kg), the AUC(0-inf) was 565 ng·h/mL, the AUC(0-t) was 555 ng·h/mL, the clearance came out at 88.5 mL/min/kg and the half-life was 2.3 h. For the same molecule, the Vd in data set [1] (iv, 3 mg/kg) stood at 5.8 L/kg. Besides, the IC50 at AHR is less than 500 nM. The “Mouse S9 Stability: % Remaining After 60 Minutes” value in data set [2] amounted to 0%.

In data set [1] (po, 30 mg/kg), `O=C(c1cnn2c(NCCc3c[nH]c4ccccc34)cc(-c3cncc(F)c3)nc12)N1CCOCC1` [I-65, [5-(5-Fluoro-3-pyridyl)-7-[2-(1H-indol-3-yl)ethylamino]pyrazolo[1,5-a]pyrimidin-3-yl]-morpholino-methanone] had a bioavailability of 7%, an AUC(0-inf) of 373 ng·h/mL, an AUC(0-t) of 370 ng·h/mL and a Cmax of 574 ng/mL. Further, in data set [1] (po, 30 mg/kg), the Tmax amounted to 0.2 h and the half-life was 0.8 h. In data set [1] (iv, 3 mg/kg), this molecule had an AUC(0-inf) of 537 ng·h/mL, an AUC(0-t) of 522 ng·h/mL, a clearance of 93.1 mL/min/kg and a half-life of 0.7 h. The Vd in data set [1] (iv, 3 mg/kg) was 2.7 L/kg. Moreover, the concentration for half-maximal inhibition (IC50) against AHR was less than 500 nM. The “Mouse S9 Stability: % Remaining After 60 Minutes” value in data set [2] was 0%.

For the molecule `CC(=O)c1cnn2c(NCCc3c[nH]c4ccccc34)cc(-c3cncc(F)c3)nc12` [I-57, 1-[5-(5-Fluoro-3-pyridyl)-7-[2-(1H-indol-3-yl)ethylamino]pyrazolo[1,5-a]pyrimidin-3-yl]ethanone], the inhibition at 30 mg/kg in the data set on Cyp1a1 (setting [3]) was 77%; in the data set with Cyp1a1 (setting [4]), 66%. The same molecule returned an IC50 on AHR of less than 500 nM.

In the case of `Fc1cncc(-c2cc(OC3CCCC3)nc(NCCc3c[nH]c4ccccc34)n2)c1` [I-59, 4-(Cyclopentoxy)-6-(5-fluoro-3-pyridyl)-N-[2-(1H-indol-3-yl)ethyl]pyrimidin-2-amine], in data set [1] (po, 30 mg/kg), the bioavailability stood at 22%, the AUC(0-inf) was 2130 ng·h/mL, the AUC(0-t) was 2110 ng·h/mL and the Cmax was found to be 719 ng/mL. Also, in data set [1] (po, 30 mg/kg), the Tmax came to 0.5 h and the half-life was 4.3 h. In addition, in data set [1] (iv, 3 mg/kg), the AUC(0-inf) worked out at 949 ng·h/mL, the area under the curve AUC(0-t) came to 925 ng·h/mL, the clearance was 53 mL/min/kg and the half-life is 6.6 h. In addition, the Vd in data set [1] (iv, 3 mg/kg) was 11.2 L/kg. The molecule further had an IC50 against AHR of less than 500 nM. Also, in data set [2], the “Mouse S9 Stability: % Remaining After 60 Minutes” value is 11%.

Turning to `Fc1cncc(-c2nc(N[C@@H]3CCc4[nH]c5ccccc5c4C3)n3ncc(Br)c3n2)c1` [I-154, (3R)—N-[8-Bromo-2-(5-fluoro-3-pyridyl)pyrazolo[1,5-a][1,3,5]triazin-4-yl]-2,3,4,9-tetrahydro-1H-carbazol-3-amine], in data set [1] (po, 30 mg/kg), the bioavailability is 39%, the AUC(0-inf) is 11200 ng·h/mL, the AUC(0-t) is 9360 ng·h/mL and the highest level (Cmax) was 840 ng/mL. Besides, in data set [1] (po, 30 mg/kg), the Tmax came out at 2 h and the half-life is 9.6 h. Also, in data set [1] (iv, 3 mg/kg), the AUC(0-inf) was 3030 ng·h/mL, the AUC(0-t) was 2410 ng·h/mL, the clearance stood at 16.5 mL/min/kg and the half-life is 12 h. Also, the Vd in data set [1] (iv, 3 mg/kg) was found to be 13.7 L/kg. The molecule further had an IC50 against AHR of less than 500 nM. The “Mouse S9 Stability: % Remaining After 60 Minutes” value in data set [2] stood at 13%.

As to `Cc1[nH]c2c(F)cc(F)cc2c1CCNc1cc(-c2cncc(F)c2)nc2c(C(C)C)cnn12` [I-107, N-[2-(5,7-Difluoro-2-methyl-1H-indol-3-yl)ethyl]-5-(5-fluoro-3-pyridyl)-3-isopropyl-pyrazolo[1,5-a]pyrimidin-7-amine], in data set [1] (setting [5]), the “Tlast” value came out at 0 h, the bioavailability worked out at 0% and the Tmax was 0 h. For the same molecule, in data set [1] (iv, 3 mg/kg), the AUC(0-inf) came to 92 ng·h/mL, the AUC(0-t) came out at 88 ng·h/mL, the clearance came out at 540 mL/min/kg and the half-life was 2.18 h. For the same molecule, in data set [1] (iv, 3 mg/kg), the Vd turned out to be 43.2 L/kg. In addition, the IC50 against AHR is less than 500 nM. Besides, the “Mouse S9 Stability: % Remaining After 60 Minutes” value in data set [2] is reported as 0%.
